According to publication PMC9322122, “Development of (4-Phenylamino)quinazoline Alkylthiourea Derivatives as Novel NF-κB Inhibitors” (Pharmaceuticals, 2022):

How the values were obtained:
NF-κB = NF-κB luciferase reporter assay; assay type: cell-based; settings: Homo sapiens, NF-κB-luciferase-transfected HEK293 cells, TNFα 50 ng/mL; for inhibition at 10 µM: mean ± SEM, n = 3, read-out: NF-κB Luciferase Activity Inh %
Protocol: NF-κB Luciferase Reporter Vector was purchased from Signosis (Santa Clara, CA, USA) and transfected into HEK-293 cells using FuGENE HD (Promega, Fitchburg, MA, USA) following the manufacturer’s protocol. The transfected cells were incubated in serum-free DMEM for 16 h and then treated with DMSO or indicated compounds. After 3 h, cells were treated with or without 50 ng/mL of Recombinant Human TNFα Protein (R&D systems, Minneapolis, MN, USA) for another 3 h. The protein lysates were analyzed using Steady-Glo® Luciferase Assay System (Promega, Fitchburg, MA, USA) and TECAN Infinite 200 pro (Männedorf, Switzerland).

[1] = Cell viability (WST-1), HEK293; assay type: cell-based; settings: human, HEK293 cells, mean ± SEM, n = 3
Protocol: (§1) Cells were incubated with the WST-1 reagent (Thermo Fisher Scientific, Waltham, MA, USA) at 37 °C for 2 h. The cell viability was determined by spectrophotometer at 450 nm.

[2] = Cell viability (WST-1), A549; assay type: cell-based; settings: human, A549 cells, mean ± SEM, n = 3
Protocol: as §1

Recombinant EGFR kinase = Recombinant EGFR kinase (Homo sapiens, UniProt P00533); assay: Recombinant EGFR kinase activity; assay type: biochemical; settings: read-out: Recombinant EGFR Kinase Activity (%inh at 150 nM)
TNFα production = TNFα production in LPS-activated dTHP-1 cells (ELISA); assay type: cell-based; settings: Homo sapiens; for inhibition at 7.5 µM / inhibition at 15 µM: LPS 100 ng/mL for 24 h, dTHP-1 cells; for inhibition at 7.5 µM: read-out: TNFα Production Inh % (7.5 μM); for inhibition at 15 µM: read-out: TNFα Production Inh % (15 μM); for IC50: LPS-activated dTHP-1 cells, 24 h
Protocol: (§2) The HEK-293 (ATCC Cat# CRL-1573, RRID:CVCL_0045) and human monocytic THP−1 cells (ATCC Cat# TIB-202, RRID:CVCL_0006) were, respectively, cultured in DMEM and RPMI 1640 media supplemented with 10% fetal bovine serum, 2 mM L-glutamine, and 1× Antibiotic-Antimycotic at 37 °C in a humidified incubator with 5% CO2. THP−1 cells were differentiated by 100 nM phorbol-12-myristate-13-acetate (PMA) for 4 h and then rested for 44 h as dTHP−1 cells.
(§3) The dTHP−1 cells were treated with indicated compounds for 3 h and then activated with or without 100 ng/mL lipopolysaccharide (LPS; E. coli 0111:B4) for another 24 h. The levels of human IL-6 and TNFα in supernatants were measured by DuoSet® ELISA Development System (R&D systems, Minneapolis, MN, USA) according to the manufacturer’s protocol.

IL-6 production = IL-6 production in LPS-activated dTHP-1 cells (ELISA); assay type: cell-based, human; settings: Homo sapiens; for inhibition at 7.5 µM / inhibition at 15 µM: LPS 100 ng/mL for 24 h, dTHP-1 cells; for inhibition at 7.5 µM: read-out: IL-6 Production Inh % (7.5 μM); for inhibition at 15 µM: read-out: IL-6 Production Inh % (15 μM); for IC50: LPS-activated dTHP-1 cells, 24 h
Protocol: as §2, §3

dTHP−1 cells = assay: Cell viability of dTHP-1 cells with or without LPS; assay type: cell-based, human; settings: in % (unit assumed); for Cell viability of dTHP-1 cells, 5 μM, LPS / Cell viability of dTHP-1 cells, 5 μM, without LPS: 5 μM (so in the source); for Cell viability of dTHP-1 cells, 5 μM, LPS / Cell viability of dTHP-1 cells, 7.5 μM, LPS: LPS 100 ng/mL for 24 h; for Cell viability of dTHP-1 cells, 5 μM, without LPS / Cell viability of dTHP-1 cells, 7.5 μM, without LPS: no LPS
Protocol: as §2, §1, §3

Chain of Recombinant EGFR kinase (P00533 25-1210): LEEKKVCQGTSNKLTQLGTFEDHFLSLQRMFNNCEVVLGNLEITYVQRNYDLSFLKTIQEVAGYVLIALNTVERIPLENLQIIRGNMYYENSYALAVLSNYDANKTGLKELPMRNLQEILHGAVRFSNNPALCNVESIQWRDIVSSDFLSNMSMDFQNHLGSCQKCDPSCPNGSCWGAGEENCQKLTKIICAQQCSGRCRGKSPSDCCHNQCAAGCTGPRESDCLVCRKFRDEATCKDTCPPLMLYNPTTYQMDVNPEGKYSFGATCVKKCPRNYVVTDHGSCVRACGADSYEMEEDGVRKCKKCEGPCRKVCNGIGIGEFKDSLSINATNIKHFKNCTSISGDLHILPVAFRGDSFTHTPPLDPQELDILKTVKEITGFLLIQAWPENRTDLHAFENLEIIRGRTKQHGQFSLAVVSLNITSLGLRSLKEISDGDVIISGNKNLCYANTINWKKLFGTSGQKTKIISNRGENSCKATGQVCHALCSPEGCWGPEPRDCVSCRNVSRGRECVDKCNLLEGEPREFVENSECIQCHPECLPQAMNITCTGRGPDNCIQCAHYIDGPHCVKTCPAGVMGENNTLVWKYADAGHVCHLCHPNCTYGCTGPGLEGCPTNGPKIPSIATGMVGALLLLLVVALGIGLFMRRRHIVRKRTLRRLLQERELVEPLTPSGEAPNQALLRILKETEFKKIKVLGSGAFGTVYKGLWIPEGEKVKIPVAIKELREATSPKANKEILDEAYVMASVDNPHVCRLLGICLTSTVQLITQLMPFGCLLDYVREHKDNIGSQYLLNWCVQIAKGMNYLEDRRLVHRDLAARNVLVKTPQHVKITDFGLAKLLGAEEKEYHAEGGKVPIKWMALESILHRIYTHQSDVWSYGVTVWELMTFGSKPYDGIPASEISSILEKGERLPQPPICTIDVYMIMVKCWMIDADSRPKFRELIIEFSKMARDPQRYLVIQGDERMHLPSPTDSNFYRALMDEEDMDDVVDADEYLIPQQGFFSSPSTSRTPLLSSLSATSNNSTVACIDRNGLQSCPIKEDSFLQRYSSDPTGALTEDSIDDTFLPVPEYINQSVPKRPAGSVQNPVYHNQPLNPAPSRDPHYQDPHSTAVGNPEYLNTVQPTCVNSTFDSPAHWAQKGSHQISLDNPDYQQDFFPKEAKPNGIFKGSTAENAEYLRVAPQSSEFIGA

| IC50 (NF-κB) [µM] | inhibition at 0.15 µM (Recombinant EGFR kinase) [%] | melting point [°C] | IC50 (TNFα production) [µM] | IC50 (IL-6 production) [µM] | Compound | inhibition at 10 µM (NF-κB) [%] | viability at 10 µM [1] [%] | viability at 10 µM [2] [%] | inhibition at 7.5 µM (TNFα production) [%] | inhibition at 15 µM (TNFα production) [%] | inhibition at 7.5 µM (IL-6 production) [%] | inhibition at 15 µM (IL-6 production) [%] | Cell viability of dTHP-1 cells, 5 μM, LPS (dTHP−1 cells) | Cell viability of dTHP-1 cells, 5 μM, without LPS (dTHP−1 cells) | Cell viability of dTHP-1 cells, 7.5 μM, LPS (dTHP−1 cells) | Cell viability of dTHP-1 cells, 7.5 μM, without LPS (dTHP−1 cells) |
| --- | --- | --- | --- | --- | --- | --- | --- | --- | --- | --- | --- | --- | --- | --- | --- | --- |
| 4.3 | 79.1 | 195.6 to 198.2 |  |  | S=C(NCc1ccco1)Nc1ccc2ncnc(Nc3cccc(Cl)c3)c2c1 [Compound 10, 1-(4-((3-Chlorophenyl)amino)quinazolin-6-yl)-3-(furan-2-ylmethyl)thiourea] | 76.1 ± 2.3 | 71.7 ± 3.1 | 74.4 ± 11.7 |  |  |  |  |  |  |  |  |
| > 10 | 26 | 252.4 to 254 |  |  | O=C(NC(=O)c1ccccc1)Nc1ccc2ncnc(Nc3cccc(Cl)c3)c2c1 [Compound 15, N-((4-((3-Chlorophenyl)amino)quinazolin-6-yl)carbamoyl)benzamide] | 48.3 ± 9.3 | 114 ± 2.6 | 100 ± 4.5 |  |  |  |  |  |  |  |  |
| 2.8 | 69.8 | 178.8 to 180.7 |  |  | S=C(NCc1cccs1)Nc1ccc2ncnc(Nc3cccc(Cl)c3)c2c1 [Compound 9, 1-(4-((3-Chlorophenyl)amino)quinazolin-6-yl)-3-(thiophen-2-yl-methyl)thiourea] | 98 ± 0.4 | 13.9 ± 0.7 | 50.7 ± 2.4 |  |  |  |  |  |  |  |  |
| 8.1 | 23.3 | 210.8 to 212 |  |  | O=C(NCc1cccc(F)c1)Nc1ccc2ncnc(Nc3cccc(Cl)c3)c2c1 [Compound 13, 1-(4-((3-Chlorophenyl)amino)quinazolin-6-yl)-3-(3-fluorobenzyl)urea] | 53.3 ± 10 | 95.5 ± 6.1 | 104 ± 5 |  |  |  |  |  |  |  |  |
| > 10 | 34.6 | 225.5 to 227 |  |  | O=C(NCc1cccc(Cl)c1)Nc1ccc2ncnc(Nc3cccc(Cl)c3)c2c1 [Compound 12, 1-(3-Chlorobenzyl)-3-(4-((3-chlorophenyl)amino)quinazolin-6-yl)urea] | 42.7 ± 9.3 | 114 ± 3.2 | 101 ± 4.2 |  |  |  |  |  |  |  |  |
| > 10 | 66 | 205.6 to 207.9 |  |  | S=C(NCc1cccnc1)Nc1ccc2ncnc(Nc3cccc(Cl)c3)c2c1 [Compound 11, 1-(4-((3-Chlorophenyl)amino)quinazolin-6-yl)-3-(pyridin-3-ylmethyl)thiourea] | 44.7 ± 5.8 | 62.8 ± 4 | 98.9 ± 4.1 |  |  |  |  |  |  |  |  |
| 2.3 | 40 | 183 to 185 |  |  | COc1cccc(CNC(=S)Nc2ccc3ncnc(Nc4cccc(Cl)c4)c3c2)c1 [Compound 8, 1-(4-((3-Chlorophenyl)amino)quinazolin-6-yl)-3-(3-methoxybenzyl)thiourea] | 76.1 ± 2.6 | 100 ± 6.9 | 101 ± 2.3 |  |  |  |  |  |  |  |  |
| 2.8 | 59 | 226.3 to 228 | 11.5 ± 1.7 | 1.1 ± 0.36 | S=C(NCC1CC1)Nc1ccc2ncnc(Nc3cccc(Cl)c3)c2c1 [Compound 18, 1-(4-((3-Chlorophenyl)amino)quinazolin-6-yl)-3-(cyclopropylmethyl)thiourea] | 89.9 ± 1.5 | 75.7 ± 3.8 | 79.1 ± 0.6 | 31 ± 4.5 | 65.9 ± 7.9 | 78.9 ± 14.8 | 89.4 ± 7 | 11.2 ± 3.3 | 87.6 ± 2.5 | 34.9 ± 1.6 | 82.7 ± 10.3 |
| > 10 | 42 | 203 to 205 |  |  | CC(C)(C)c1ccc(CNC(=S)Nc2ccc3ncnc(Nc4cccc(Cl)c4)c3c2)cc1 [Compound 1, 1-(4-(tert-Butyl)benzyl)-3-(4-((3-chlorophenyl)amino)quinazolin-6-yl)thiourea] | 41.6 ± 3.8 | 73.9 ± 4.6 | 91.1 ± 3.4 |  |  |  |  |  |  |  |  |
| 1.9 | 72 | 164 to 166 |  |  | Fc1ccc(CNC(=S)Nc2ccc3ncnc(Nc4cccc(Cl)c4)c3c2)cc1 [Compound 5, 1-(4-((3-Chlorophenyl)amino)quinazolin-6-yl)-3-(4-fluorobenzyl)thiourea] | 79.1 ± 0.8 | 67 ± 6.1 | 65.3 ± 1.1 |  |  |  |  |  |  |  |  |
| > 10 | 48 | 204 to 206 | 11.9 ± 0.7 | 1.2 ± 0.16 | COc1ccc(CNC(=S)Nc2ccc3ncnc(Nc4cccc(Cl)c4)c3c2)c(OC)c1 [Compound 7, 1-(4-((3-Chlorophenyl)amino)quinazolin-6-yl)-3-(2,4-dimethoxybenzyl)thiourea] | 27.1 ± 3.4 | 85.9 ± 2.5 | 99.5 ± 1.4 | 37 ± 4.9 | 50.3 ± 5.5 | 71 ± 3.4 | 84 ± 0.82 | 91.9 ± 4.2 | 96.8 ± 4.2 |  | 94.4 ± 0.61 |
| 1.7 | 67 | 165 to 167 | 10.2 ± 0.27 | 1.2 ± 0.12 | COc1ccc(CNC(=S)Nc2ccc3ncnc(Nc4cccc(Cl)c4)c3c2)cc1 [Compound 2, 1-(4-((3-Chlorophenyl)amino)quinazolin-6-yl)-3-(4-methoxybenzyl)thiourea] | 94.6 ± 0.1 | 101 ± 7.4 | 95.4 ± 1.9 | 32.5 ± 8.5 | 60.4 ± 1.8 | 76.2 ± 13.3 | 87.5 ± 6.8 | 78.8 ± 5.3 | 94.2 ± 1.6 | 57.5 ± 1.4 | 99.2 ± 1.5 |
| > 10 | 70 | 165 to 167 |  |  | FC(F)(F)c1ccc(CNC(=S)Nc2ccc3ncnc(Nc4cccc(Cl)c4)c3c2)cc1 [Compound 3, 1-(4-((3-Chlorophenyl)amino)quinazolin-6-yl)-3-(4-(trifluoromethyl)benzyl)thiourea] | 46.5 ± 4.9 | 68.9 ± 6.4 | 73.4 ± 4.3 |  |  |  |  |  |  |  |  |
| > 10 | 56 | 166 to 168 |  |  | S=C(NCc1ccc(Cl)cc1)Nc1ccc2ncnc(Nc3cccc(Cl)c3)c2c1 [Compound 4, 1-(4-Chlorobenzyl)-3-(4-((3-chlorophenyl)amino)quinazolin-6-yl)thiourea] | 31.9 ± 9.6 | 95.9 ± 3.4 | 98.1 ± 1.9 |  |  |  |  |  |  |  |  |
| 8 | 44.5 | 222.4 to 228.8 |  |  | C#Cc1cccc(Nc2ncnc3ccc(NC(=O)NCc4cccc(Cl)c4)cc23)c1 [Compound 14, 1-(3-Chlorobenzyl)-3-(4-((3-ethynylphenyl)amino)quinazolin-6-yl)urea] | 58.5 ± 0.9 | 110 ± 2.7 | 98.6 ± 3 |  |  |  |  |  |  |  |  |
| 7 | 48.9 | 186.1 to 188.5 |  |  | O=C(NC(=S)Nc1ccc2ncnc(Nc3cccc(Cl)c3)c2c1)c1ccccc1 [Compound 16, N-((4-((3-Chlorophenyl)amino)quinazolin-6-yl)carbamothioyl)benzamide] | 58.2 ± 5.2 | 102 ± 4 | 102 ± 1.6 |  |  |  |  |  |  |  |  |
